Laboratory results published in US20240082118A1, “TOPICAL COMPOSITIONS AND METHODS OF PREPARING THE SAME” (LANDA LABS (2012) LTD., priority 2021, published 2024).

System: skin of pigs' ears
Assay: Ex vivo penetration of fluorescently marked nano-elements into pig ear skin
Format: in vitro ADME
Settings: marker in water, or in water with the surfactants of Composition 2.21
Experimental: The distribution of nano-elements of the present compositions in various skin layers was tested ex vivo by applying onto the skin of pigs' ears nano-elements including a fluorescent dye (Nile red) allowing histological monitoring of their presence within the layers of the tissue onto which they were applied.
Tested composition (2) was prepared by adding 2 mg of Nile red fluorescent marker during the preparation of the CSSC premix, as described in Example 2.
The compositions were tested on two freshly harvested pig ears, collected on the same day, and kept fresh and cooled till use. The ears were washed with excess saline solution and wiped dry. They were then immobilized for the duration of the study by taping them onto a glass surface, their inner side facing down. Each ear was marked on its outer side with 6 circles having a diameter of about 1 cm.
25 microliters of each one of the samples were applied onto the skin near the center of the marked circle, each tested composition being applied in two or more separate circles for repeats. The ears with the applied test samples were then placed in an oven for an incubation time of 20 hours at a temperature of 32° C., to simulate the pigs' body temperature. […]
The tissue sections were evaluated by an expert for the presence and intensity of the marker using a fluorescence microscope at objective magnification of ×10. […]

CCN(CC)c1ccc2nc3c4ccccc4c(=O)cc-3oc2c1 [Nile red, 9-(diethylamino)-5H-benzo[a]phenoxazin-5-one]
penetration of the fluorescent marker into skin without nano-elements: No penetration
